Results reported in patent US9006185B2, “Use of cell-permeable peptide inhibitors of the JNK signal transduction pathway for the treatment of various diseases” (Xigen Inflammation Ltd., priority 2008, dated 2015).
Entries after “also recorded” stand apart in the source; their conditions may differ.

Columns and labels:
[1] = test system: endogenous JNK in HepG2 cells; test: AlphaScreen, endogenous IL-1 dependent JNK activity in HepG2 cells; format: cell-based; conditions: FIG. 3 panel d
Method: HepG2 cells were seeded at 3,000 cells/well the day prior the experiment. Then, increasing concentrations of either interleukin-1 [IL-1 beta v)] or tumor necrosis factor [TNFalpha (•)] (a) were added to activate JNK for 30 minutes. Cells were lysed in 20 mM Hepes, 0.5% Tween pH 7.4 and processed for AlphaScreen JNK. (b) Z′ for the JNK activity induced by 10 ng/ml IL-1 and measured in 384 wells/plate (n=96). (c) Inhibition of endogenous IL-1 beta-induced JNK activity with chemical JNK inhibitors [staurosporin (°) and SP600125 (•)]. (d) Effect of peptidic inhibitors L-TAT-IB1(s) according to SEQ ID NO: 9 [here abbreviated as L-JNKi (ν)) and D-TAT-IB1(s) according to SEQ ID NO: 11 (here abbreviated as D-JNKi (♦)) and JBDs (•) (corresponds to L-JNKI without the TAT sequence)] on IL-1 dependent JNK activity. All panels are representative of three independent experiments (n=3). […]
Principle: AlphaScreen is a non-radioactive bead-based technology used to study biomolecular interactions in a microplate format. The acronym ALPHA stands for Amplified Luminescence Proximity Homogenous Assay. […]
Kinase reagents (B-GST-cJun, anti P-cJun antibody and active JNK3) were first diluted in kinase buffer (20 mM Tris-HCl pH 7.6, 10 mM MgCl2, 1 mM DTT, 100 μM Na3VO4, 0.01% Tween-20) and added to wells (15 μl). […] AlphaScreen signal was analyzed directly on the Fusion or En Vision apparatus.

C57BL/6 mice = test: Bleomycin induced acute lung inflammation; format: in vivo
Excerpt: In order to determine the activity of the exemplary all-D retro-inverso IB(s) peptide XG-102 (SEQ ID NO: 11) in the treatment of Chronic Obstructive Pulmonary Disease (COPD) XG-102 (SEQ ID NO: 11) is used in an animal model of Bleomycin induced acute lung inflammation and fibrosis. The protocol of bleomycin induced inflammation and fibrosis has been described before in the literature. The aim of the Experiment was to investigate the effect of XG-102 (SEQ ID NO: 11) by subcutaneous (s.c.) route on neutrophil recruitment in broncho alveolar lavage (BAL) and lung in bleomycin induced inflammation and fibrosis: • at 1 day after a single bleomycin administration (10 mg/kg) • and at day 10 with the development of fibrosis 1) Method and Experimental Approach • The test compound XG-102 (SEQ ID NO: 11) at two doses and vehicle control were given s.c. with a single intranasal administration of bleomycin and mice were analyzed after 1 and 10 days. The animals used in the model were 10 C57BL/6 mice (8 weeks old) per group. The experimental groups included vehicle, 0.001 mg/kg XG-102 (SEQ ID NO: 11) and 0.1 mg/kg XG-102 (SEQ ID NO: 11), and the treatment consisted of repeated sub-cutaneous administration of XG-102 (SEQ ID NO: 11), prior to bleomycin administration then every 3 days. Acute lung inflammation at 24 h was monitored by BAL lavage, cytology, cell counts, and lung myeloperoxidase activity. The effect of the compound was compared with vehicle controls. Lung fibrosis was assessed histologically using hematoxylin and eosin staining at day 10 after the single dose of bleomycin. 1.1) Bleomycin Administration • Bleomycin sulfate in saline (10 mg/kg body weight) from Belton Laboratories (Montrouge, France) or saline were given through the airways by nasal instillation in a volume of 40 μL under light ketamine-xylasine anesthesia. The groups for Bleomycin administration for both bleomycin induced inflammation and fibrosis included: Vehicle, 0.001 mg/kg XG-102 (SEQ ID NO: 11) and 0.1 mg/kg XG-102 (SEQ ID NO: 11). The route for bleomycin induced inflammation was subcutaneous (s.c.) route, and administration occurred as a single dose. The route for bleomycin induced fibrosis was subcutaneous (s.c.) route, and administration occurred 3 times in 10 days. 1.2) Bronchioalveolar Lavage Fluid (BAL F) • After incision of the trachea, a plastic cannula was inserted and airspaces were washed using 0.3 ml of PBS solution, heated to 37° C. The samples collected were dispatched in 2 fractions: the first one (1 ml corresponding to the 2 first lavages) was used for mediator measurement and the second one for the cell determination (4 ml). The first fraction was centrifuged (600 g for 10 min) and supernatant was fractionated and kept at −80° C. until mediator determination. The cell pellet was then resuspended in 0.4 ml sterile NaCl, 0.9%, and pooled with the second fraction and was used for cell counts. […] 1.4) Cell Count and Determination • Total cell count was determined in BAL fluid using a Malassez hemocytometer. […] 1.5) TNF Measurement • TNF level in BALF was determined using ELISA assay kits (Mouse DuoSet, R&D system, Minneapolis, USA) according to manufacturer's instructions. […] 1.6) MPO-Measurement • MPO-levels were measured upon administration of XG-102. […]

## CC(C)C[C@@H](NC(=O)[C@@H](Cc1ccccc1)NC(=O)[C@H]1CCCN1C(=O)[C@@H](CCC(N)=O)NC(=O)[C@H](NC(=O)[C@H]1CCCN1C(=O)[C@@H](CCCNC(=N)N)NC(=O)[C@@H](CO)NC(=O)[C@@H](CCC(N)=O)NC(=O)[C@H](N)CC(=O)O)C(C)C)C(=O)N[C@H](CC(N)=O)C(=O)N[C@H](CC(C)C)C(=O)N[C@@H](C(=O)N[C@@H](C(=O)N1CCC[C@@H]1C(=O)N[C@H](CCCNC(=N)N)C(=O)N[C@H](CCCCN)C(=O)N1CCC[C@@H]1C(=O)N[C@H](CCCNC(=N)N)C(=O)N1CCC[C@@H]1C(=O)N1CCC[C@@H]1C(=O)N[C@H](CCCNC(=N)N)C(=O)N[C@H](CCCNC(=N)N)C(=O)N[C@H](CCCNC(=N)N)C(=O)N[C@H](CCC(N)=O)C(=O)N[C@H](CCCNC(=N)N)C(=O)N[C@H](CCCNC(=N)N)C(=O)N[C@H](CCCCN)C(=O)N[C@H](CCCCN)C(=O)N[C@H](CCCNC(=N)N)C(=O)NCC(=O)O)[C@H](C)O)[C@H](C)O [XG-102]
[1]
  inhibition of IL-1 dependent endogenous JNK activity: effectively inhibits JNK activity, even better than L-TAT-IB1(s)
C57BL/6 mice; 0.001 mg/kg s.c., single dose, 1 day
  neutrophil recruitment and other cell types in bronchioalveolar space: has no effect on neutrophil recruitment or other cell types
C57BL/6 mice; 0.1 mg/kg s.c., single dose, 1 day
  neutrophil recruitment and total cells in bronchioalveolar lavage space: reduces significantly the neutrophil recruitment and the number of total cells recruited
C57BL/6 mice; acute inflammation study
  histology, inflammatory cell accumulation: a decrease of the inflammatory cell accumulation in the peribronchial space
C57BL/6 mice; s.c., MPO not significantly induced after bleomycin
  MPO levels in the lung: only little effect on the MPO levels in the lung; also recorded: no effect on the MPO levels in the lung
C57BL/6 mice; s.c., TNF levels very low after BLM
  TNF level in BALF: a trend to reduction of the TNF level in BALF
